Experimental findings from patent publication US4405713A, “Process for the preparation of optically active anthracycline glycosides A and B” (priority 1981, dated 1983) are described below.

A word on the MIC: it is the smallest concentration in the dilution series that meets the test's criterion for growth inhibition.

≈ marks a conversion by molar mass, not a printed value. Where two headings read alike, the source gives them in different places.

In series [1] the test system is Bacillus subtilis IAM 1027. Kind of series: in vitro minimum inhibitory concentration (MIC), agar streak method. The series is classed as cell-based. Conditions: IAM1027.
In series [2] the test system is Sarcina lutea IAM 1009. The series is described as above. The series is classed as cell-based. The conditions noted are these: Micrococcus luteus, IAM1009.
Series [3] has as its system Staphylococcus aureus 209P IAM 1011. The description is as above. It is filed as cell-based.
In series [4] the test system is Staphylococcus epidermidis IFO 12993. Described as above. Conditions: IFO12993. It is filed as cell-based.
The test system of series [5] is Micrococcus flavus ATCC 10240. The series is described as above. The series is classed as cell-based. The conditions noted are these: ATCC10240.
The test system of series [6] is Escherichia coli K-12 IAM 1264. Described as above. It is filed as cell-based. The conditions noted are these: IAM1264.
The test system of series [7] is Pseudomonas aeruginosa IFO 12689. Described as above. The series is classed as cell-based. Conditions: IFO12689.
For series [8], the system named is Proteus vulgaris IAM 1025. The description is as above. It is filed as cell-based. Conditions: IAM1025.
The test system of series [9] is Klebsiella pheumonia IFO 3512. Described as above. It is filed as cell-based. The conditions noted are these: IFO3512.
The subject of series [10] is P388 leukemia. In words: antitumour activity against P388 leukemia in mice, survival time. It is filed as in vivo, male CDF1 mice. Conditions: i.p., days 1, 5 and 9; for Mean survival: control 10.6 ± 0.6. The protocol: 4-Deoxy-aclacinomycin A obtained in the present invention was tested against P388 leukemia in mice. When male CDF1 mice (5 week old) were inoculated with 10^6 of P388 leukemia cells intraperitoneally and the antibiotic was administered through the same route on days 1, 5 and 9, the survival time of the treated mice was prolonged as shown in Table 6.

The nature of series [11]: toxicity (survival of treated mice). The series is classed as in vivo. How it is done: All the mice treated with 100 mg/kg of 4-deoxy-aclacinomycin A, i.p., survived more than 7 days.

On to `CC[C@@]1(O)C[C@H](O[C@H]2C[C@H](N(C)C)[C@H](O[C@H]3C[C@@H]4OC5CC(=O)C(C)OC5O[C@@H]4[C@H](C)O3)[C@H](C)O2)c2c(cc3c(c2O)C(=O)c2ccccc2C3=O)[C@H]1C(=O)OC` (stereo partly drawn) [4-Deoxy-aclacinomycin B, 4-deoxy-aclacinomycin B], for which the MIC was 6.25 µg/mL (≈ 7.87 µM) in series [1] (Bacillus subtilis); 0.39 µg/mL (≈ 0.491 µM) in series [2]; 3.13 µg/mL (≈ 3.94 µM) in series [3] (Staphylococcus aureus); 3.13 µg/mL (≈ 3.94 µM) in series [4] (Staphylococcus epidermidis); 0.39 µg/mL (≈ 0.491 µM) in [5] (Micrococcus flavus); greater than 100 µg/mL in series [6] (Escherichia coli). Also, the MIC in series [7] (Pseudomonas aeruginosa), in series [8] (Proteus vulgaris) and in [9] (Klebsiella) was greater than 100 µg/mL each time.

Consider `CC[C@@]1(O)C[C@H](O[C@H]2C[C@H](N(C)C)[C@H](O[C@H]3C[C@H](O)[C@H](O[C@H]4CCC(=O)[C@H](C)O4)[C@H](C)O3)[C@H](C)O2)c2c(cc3c(c2O)C(=O)c2ccccc2C3=O)[C@H]1C(=O)OC` [4-Deoxy-aclacinomycin A, 4-deoxy-aclacinomycin A], for which the minimal inhibitory concentration (MIC) in series [1] (Bacillus subtilis IAM 1027, read-out: MIC) was 0.39 µg/mL (≈ 0.49 µM); in series [2] (Sarcina lutea IAM 1009, read-out: MIC) it was 0.19 µg/mL (≈ 0.239 µM); in [3] (Staphylococcus aureus 209P IAM 1011, read-out: MIC), 0.78 µg/mL (≈ 0.98 µM); in series [4] (Staphylococcus epidermidis IFO 12993, read-out: MIC), 0.78 µg/mL (≈ 0.98 µM); in series [5] (Micrococcus flavus ATCC 10240, read-out: MIC), 0.19 µg/mL (≈ 0.239 µM); in series [6] (Escherichia coli K-12 IAM 1264, read-out: MIC), greater than 100 µg/mL. Besides, the MIC in series [7] (Pseudomonas aeruginosa IFO 12689, read-out: MIC) is greater than 100 µg/mL; in series [8] (Proteus vulgaris IAM 1025, read-out: MIC), greater than 100 µg/mL; in [9] (Klebsiella pheumonia IFO 3512, read-out: MIC), greater than 100 µg/mL. The “Increase in life span (%)” value is 8% in [10] (total dose 5.6 mg/Kg); 18% in [10] (total dose 11.3 mg/Kg); 23% in [10] (total dose 22.5 mg/Kg); 27% in [10] (total dose 45 mg/Kg); 57% in series [10] (total dose 90 mg/Kg). In addition, the Mean survival in series [10] (total dose 5.6 mg/Kg) was determined as 11.5 ± 0.5 days; in series [10] (total dose 11.3 mg/Kg), 12.5 ± 0.5 days; in series [10] (total dose 22.5 mg/Kg), 13.0 ± 0.0 days; in series [10] (total dose 45 mg/Kg) it was 13.5 ± 0.5 days; in series [10] (total dose 90 mg/Kg), 16.5 ± 0.5 days. The “survival of all the mice treated” value in series [11] (100 mg/kg, i.p.) is “more than 7 days”. In addition, the “toxicity as compared with that of aclacinomycin A” value in [11] (statement in words) is given as “very low as compared with that of aclacinomycin A”.
